Measurements as given in PubChem BioAssay (NCI).
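The compound was tested at five concentrations on cells cultured in 96-well plates, with a 48-hour exposure period. GI50 marks 50% less growth. Definition used: TGI = concentration required for complete inhibition of growth.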

Key:
Assay in all cases: NCI tumour cell line growth inhibition, 48 h
[1] = test system: BT-549 breast
[2] = test system: ACHN renal
[3] = test system: SK-MEL-2 melanoma
[4] = test system: A549 NSCLC
[5] = test system: MOLT-4 leukemia
[6] = test system: MCF7 breast
[7] = test system: HL-60(TB) leukemia
[8] = test system: SF-295 CNS
[9] = test system: U251 CNS
[10] = test system: SK-OV-3 ovarian
[11] = test system: KM12 colon
[12] = test system: HCT-116 colon
[13] = test system: LOX IMVI melanoma
[14] = test system: NCI-H460 lung
[15] = test system: IGROV1 ovarian
[16] = test system: SR leukemia
[17] = test system: MDA-MB-435
[18] = test system: SF-268 CNS
[19] = test system: M14 melanoma
[20] = test system: RXF 393 renal
[21] = test system: A498 renal
[22] = test system: SN12C renal
[23] = test system: RPMI-8226 leukemia
[24] = test system: NCI-H522 lung
[25] = test system: NCI/ADR-RES ovarian
[26] = test system: HOP-62 NSCLC
[27] = test system: EKVX NSCLC
[28] = test system: NCI-H226 lung
[29] = test system: K-562 leukemia
[30] = test system: UACC-257 melanoma
[31] = test system: MDA-MB-231 breast
[32] = test system: CAKI-1 renal
[33] = test system: SW-620 colon
[34] = test system: HCC-2998 colon
[35] = test system: HT29 colon
[36] = test system: PC-3 prostate
[37] = test system: HCT-15 colon
[38] = test system: SK-MEL-28 melanoma
[39] = test system: OVCAR-4 ovarian
[40] = test system: OVCAR-3 ovarian
[41] = test system: TK-10 renal
[42] = test system: T-47D breast
[43] = test system: HS 578T breast
[44] = test system: COLO 205 colon
[45] = test system: SF-539 CNS
[46] = test system: MALME-3M melanoma
[47] = test system: SK-MEL-5 melanoma
[48] = test system: OVCAR-8 ovarian
[49] = test system: HOP-92 NSCLC
[50] = test system: OVCAR-5 ovarian
[51] = test system: UACC-62 melanoma
[52] = test system: DU-145 prostate
[53] = test system: SNB-19 CNS
[54] = test system: SNB-75 CNS
[55] = test system: 786-0 renal
[56] = test system: NCI-H23 lung
[57] = test system: CCRF-CEM leukemia
[58] = test system: UO-31 renal

## CCCC(=O)NC(c1ccc(N(CC)CC)cc1)c1cc(C)c2cccnc2c1O (stereo not drawn)
[1]
  GI50: 1040 nM
  TGI: > 59200 nM
[2]
  GI50: 422 nM
  TGI: > 24300 nM
[3]
  GI50: 399 nM
  TGI: > 42000 nM
[4]
  GI50: 737 nM
  TGI: > 100000 nM
[5]
  GI50: 397 nM
  TGI: > 100000 nM
[6]
  GI50: 303 nM
  TGI: > 100000 nM
[7]
  GI50: 331 nM
  TGI: 4850 nM
[8]
  GI50: 352 nM
  TGI: > 100000 nM
[9]
  GI50: 386 nM
  TGI: > 100000 nM
[10]
  GI50: 635 nM
  TGI: > 100000 nM
[11]
  GI50: 454 nM
  TGI: > 100000 nM
[12]
  GI50: 381 nM
  TGI: > 100000 nM
[13]
  GI50: 496 nM
  TGI: > 100000 nM
[14]
  GI50: 247 nM
[15]
  GI50: 439 nM
  TGI: 14600 nM
[16]
  GI50: 388 nM
  TGI: > 54400 nM
[17]
  GI50: 409 nM
  TGI: > 48600 nM
[18]
  GI50: 438 nM
  TGI: 32600 nM
[19]
  GI50: 462 nM
  TGI: 5120 nM
[20]
  GI50: 1450 nM
  TGI: > 26900 nM
[21]
  GI50: > 100000 nM
  TGI: > 100000 nM
[22]
  GI50: 828 nM
  TGI: > 100000 nM
[23]
  GI50: 520 nM
  TGI: > 100000 nM
[24]
  GI50: 319 nM
[25]
  GI50: 366 nM
  TGI: > 100000 nM
[26]
  GI50: 511 nM
  TGI: > 100000 nM
[27]
  GI50: 313 nM
  TGI: 5040 nM
[28]
  GI50: 513 nM
  TGI: 4260 nM
[29]
  GI50: 336 nM
  TGI: > 100000 nM
[30]
  GI50: 834 nM
  TGI: > 24600 nM
[31]
  GI50: 539 nM
  TGI: > 100000 nM
[32]
  GI50: 381 nM
[33]
  GI50: 522 nM
  TGI: > 100000 nM
[34]
  GI50: 570 nM
  TGI: > 100000 nM
[35]
  GI50: 492 nM
  TGI: > 100000 nM
[36]
  GI50: 477 nM
  TGI: > 100000 nM
[37]
  GI50: 323 nM
  TGI: > 100000 nM
[38]
  GI50: 561 nM
  TGI: > 100000 nM
[39]
  GI50: 394 nM
  TGI: > 100000 nM
[40]
  GI50: 374 nM
  TGI: > 100000 nM
[41]
  GI50: 489 nM
  TGI: > 100000 nM
[42]
  GI50: 675 nM
  TGI: > 100000 nM
[43]
  GI50: 358 nM
  TGI: > 100000 nM
[44]
  GI50: 398 nM
  TGI: > 100000 nM
[45]
  GI50: 462 nM
  TGI: 4560 nM
[46]
  GI50: 1450 nM
  TGI: > 87300 nM
[47]
  GI50: 639 nM
  TGI: 5530 nM
[48]
  GI50: 381 nM
  TGI: > 100000 nM
[49]
  GI50: 306 nM
  TGI: > 100000 nM
[50]
  GI50: 791 nM
  TGI: > 100000 nM
[51]
  GI50: 347 nM
  TGI: 1390 nM
[52]
  GI50: 710 nM
  TGI: > 100000 nM
[53]
  GI50: 464 nM
  TGI: > 100000 nM
[54]
  GI50: 199 nM
  TGI: 1800 nM
[55]
  GI50: 763 nM
  TGI: > 38500 nM
[56]
  GI50: 462 nM
  TGI: > 100000 nM
[57]
  GI50: 407 nM
  TGI: > 100000 nM
[58]
  GI50: 302 nM
  TGI: 5670 nM
